Test results published in ChEMBL document CHEMBL3351526, “Structure-based optimization of non-peptidic Cathepsin D inhibitors” (Bioorg Med Chem Lett, 2014).
Activity calls are given as the source filed them. The rule behind the calls is not given here.

Assays:
[1] = Inhibition of pepsin (unknown origin); parameters: species or system Homo sapiens
[2] = biological target: T1, Cathepsin D (Bos taurus) (UniProt P80209); experiment: Inhibition of cathepsin D in bovine cartilage explants assessed as reduction in sulphated GAGs level at <1 uM after 3 days by spectrophotometric 1,9-dimethylmethylene blue shift assay based glycosaminoglycan release method
T1 sequence (whole entry): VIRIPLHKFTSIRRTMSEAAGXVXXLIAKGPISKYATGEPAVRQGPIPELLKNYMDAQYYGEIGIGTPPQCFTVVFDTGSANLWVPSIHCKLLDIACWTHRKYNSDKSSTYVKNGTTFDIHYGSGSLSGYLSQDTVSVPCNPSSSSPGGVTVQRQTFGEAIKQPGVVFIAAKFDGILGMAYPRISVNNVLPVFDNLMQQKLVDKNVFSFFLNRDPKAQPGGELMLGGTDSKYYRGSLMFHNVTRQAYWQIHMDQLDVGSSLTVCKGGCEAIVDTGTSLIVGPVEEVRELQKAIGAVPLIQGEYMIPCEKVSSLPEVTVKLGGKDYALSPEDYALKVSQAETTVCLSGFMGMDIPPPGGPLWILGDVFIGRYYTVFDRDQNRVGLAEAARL

[3] = biological target: T2, Cathepsin D (Homo sapiens, UniProt P07339); experiment: Inhibition of human liver cathepsin D using MCA-labeled GKPILFFRLK(Dnp)-D-R-NH2 peptide by fluorescence-based assay
[4] = biological target: T3, Renin (Homo sapiens, UniProt P00797); experiment: Inhibition of human recombinant renin using quenched Dabcyl-g-Abu-IHPFHLVIHT-Edans peptide substrate by fluorescence-based assay
T3 sequence (P00797 whole entry): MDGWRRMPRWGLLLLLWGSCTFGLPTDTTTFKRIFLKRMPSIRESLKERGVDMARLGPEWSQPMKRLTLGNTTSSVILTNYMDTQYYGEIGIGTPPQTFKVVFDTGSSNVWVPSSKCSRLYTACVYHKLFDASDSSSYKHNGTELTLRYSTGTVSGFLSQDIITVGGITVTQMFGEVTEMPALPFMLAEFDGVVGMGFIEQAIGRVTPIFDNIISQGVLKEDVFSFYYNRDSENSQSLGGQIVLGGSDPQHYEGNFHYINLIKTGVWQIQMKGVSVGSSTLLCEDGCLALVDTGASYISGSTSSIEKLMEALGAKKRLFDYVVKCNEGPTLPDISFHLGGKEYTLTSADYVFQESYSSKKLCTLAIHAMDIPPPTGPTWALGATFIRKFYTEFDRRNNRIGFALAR

[5] = Stability in mouse liver microsomes assessed as intrinsic clearance; assay type: ADME; conditions: read-out: CLH
[6] = Stability in rat liver microsomes assessed as intrinsic clearance; assay type: ADME; conditions: read-out: CLH
[7] = Stability in human liver microsomes assessed as intrinsic clearance; assay type: ADME; conditions: read-out: CLH
[8] = biological target: T4, Cathepsin D (Bos taurus, UniProt P80209); experiment: Inhibition of cathepsin D in bovine cartilage explants assessed as reduction in sulphated GAGs level after 3 days by spectrophotometric 1,9-dimethylmethylene blue shift assay based glycosaminoglycan release method
T4 sequence (P80209 whole entry): T1 sequence (whole entry)

[9] = Apparent permeability across apical to basolateral side in human Caco2 cells; assay type: ADME, cell-based; conditions: Caco-2
[10] = biological target: T2, Cathepsin D

T2 sequence (P07339 65-162 limits assumed): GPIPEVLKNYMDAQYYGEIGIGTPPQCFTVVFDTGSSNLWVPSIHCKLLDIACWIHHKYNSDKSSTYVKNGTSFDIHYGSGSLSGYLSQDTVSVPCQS
T2 sequence (P07339 169-412 limits assumed): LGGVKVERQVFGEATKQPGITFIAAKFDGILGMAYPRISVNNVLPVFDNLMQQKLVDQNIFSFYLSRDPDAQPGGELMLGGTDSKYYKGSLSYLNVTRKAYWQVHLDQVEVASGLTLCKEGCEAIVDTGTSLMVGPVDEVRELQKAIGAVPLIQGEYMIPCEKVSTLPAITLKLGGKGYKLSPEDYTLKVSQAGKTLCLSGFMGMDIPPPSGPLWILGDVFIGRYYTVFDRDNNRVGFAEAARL

| SMILES | IC50 [3] [µM] | IC50 [4] [µM] | microsomal CLint [6] [µL/min/mg] | microsomal CLint [7] [µL/min/mg] | further results |
| --- | --- | --- | --- | --- | --- |
| CC(C)CC(=O)N[C@H](C(=O)N[C@H](C(=O)N[C@@H](CC(C)C)[C@@H](O)CC(=O)N[C@@H](C)C(=O)N[C@@H](CC(C)C)[C@@H](O)CC(=O)O)C(C)C)C(C)C [PEPSTATIN] |  |  |  |  | IC50 [1]: 0.0001 µM |
| COc1cc(Br)c(CC(=O)NC(=N)N[C@H](CC2CCCCC2)C(=O)NCc2cccc(-c3nnn[nH]3)c2)cc1OC |  |  | 33 | 240 | microsomal CLint [5]: 40 µL/min/mg |
| COc1ccc(CNC(=O)[C@@H](CC2CCCCC2)NC(=N)NC(=O)Cc2ccc(OC)c(OC)c2)cc1F |  | 13 |  |  |  |
| COc1ccc(CC(=O)NC(=N)N[C@H](CC2CCCCC2)C(=O)NCc2ccc(F)c(F)c2)cc1OC | 0.17 |  |  |  |  |
| COc1cc(CNC(=O)[C@@H](CC(C)C)NC(=N)NC(=O)Cc2ccc(OC)c(OC)c2)ccc1F |  | 8.7 | 148 | 966 | IC50 [8]: 0.62 µM |
| COc1ccc(CC(=O)NC(=N)N[C@H](CC2CCCCC2)C(=O)NCc2ccc(-c3nnn[nH]3)cc2)cc1OC |  |  | 38 | 76 | microsomal CLint [5]: < 10 µL/min/mg; IC50 [8]: 1.8 µM; Papp A→B [9]: 0.25 ×10⁻⁶ cm/s |
| COc1cc(Br)c(C(=O)N[C@@H](Cc2cccc(Oc3ccccc3)c2)[C@@H](O)CN(CCc2ccc(Cl)cc2Cl)C(=O)CCN2C(=O)c3ccccc3C2=O)cc1OC |  |  |  |  | inhibition [2]: inactive; IC50 [10]: 0.085 µM |
| COc1cc(CNC(=O)[C@@H](CC2CCCCC2)NC(=N)NC(=O)Cc2ccc(OC)c(OC)c2)ccc1F |  | 16 | 241 | > 1000 | IC50 [8]: 0.5 µM; Papp A→B [9]: 5 ×10⁻⁶ cm/s |
| COc1ccc(CNC(=O)[C@@H](CC(C)C)NC(=N)NC(=O)Cc2ccc(OC)c(OC)c2)cc1OC |  |  | 143 | 262 |  |
| COc1ccc(CC(=O)NC(=N)N[C@H](CC(C)C)C(=O)NCc2ccc(-c3nnn[nH]3)c(F)c2)cc1OC |  |  | < 10 | 54 |  |
| COc1cc(CNC(=O)[C@@H](CC2CCCCC2)NC(=N)NC(=O)Cc2cc(OC)c(OC)cc2Br)ccc1F |  | > 30 | 823 | > 1000 | IC50 [8]: 0.9 µM |

Continued, in another order:

| IC50 [3] [µM] | IC50 [4] [µM] | microsomal CLint [6] [µL/min/mg] | microsomal CLint [7] [µL/min/mg] | SMILES | further results |
| --- | --- | --- | --- | --- | --- |
| 0.44 | > 30 |  |  | COc1cc(CC(=O)NC(=N)NCc2ccc(Cl)c(Cl)c2)c([N+](=O)[O-])cc1OC | inhibition [2]: inactive |
| 1.5 | > 30 |  |  | COc1cc(CC(=O)NC(=N)NCc2ccc(Cl)cc2)c([N+](=O)[O-])cc1OC | inhibition [2]: inactive |
| 1.9 | > 30 |  |  | COc1ccc(CC(=O)NC(=N)NCc2ccc(C)cc2)cc1OC | inhibition [2]: inactive |
| 18 | > 30 |  |  | COc1cc(CCCC(=O)NC(=N)NCc2ccccc2)c([N+](=O)[O-])cc1OC |  |
| 29 | > 30 |  |  | COc1ccc(CC(=O)NC(=N)NCc2ccc(N)cc2)cc1OC |  |
| 3 | > 30 |  |  | COc1cc(CC(=O)NC(=N)NCc2ccccc2Cl)c([N+](=O)[O-])cc1OC | inhibition [2]: inactive |
| 25 | 20 |  |  | COc1ccc(CCC(=O)NC(=N)NCc2ccccc2)cc1OC |  |
|  | > 30 | 384 | > 1000 | COc1ccc(CNC(=O)[C@@H](Cc2ccccc2)NC(=N)NC(=O)Cc2ccc(OC)c(OC)c2)cc1OC | IC50 [8]: 0.33 µM |
| 2.7 | > 30 |  |  | COc1ccc(CNC(=N)NC(=O)Cc2cc(OC)c(OC)cc2[N+](=O)[O-])cc1OC | inhibition [2]: inactive |
| 10 | > 30 |  |  | COc1cc(CC(=O)NC(=N)NCc2ccccc2)c([N+](=O)[O-])cc1OC |  |
|  |  | < 10 | 69 | COc1ccc(CC(=O)NC(=N)N[C@H](CC(C)C)C(=O)NCc2ccc(-c3nnn[nH]3)cc2)cc1OC | microsomal CLint [5]: < 10 µL/min/mg |
| 6.1 | > 30 |  |  | COc1ccc(Cl)c(CC(=O)NC(=N)NCc2ccccc2)c1 |  |
|  |  | 17 | 107 | COc1cc(Br)c(CC(=O)NC(=N)N[C@H](CC(C)C)C(=O)NCc2cccc(-c3nnn[nH]3)c2)cc1OC | microsomal CLint [5]: 38 µL/min/mg |
